Experimental data as given in ChEMBL document CHEMBL3862023, “Synthesis of N-aryl and N-arylcarbamoylamino derivatives of 1,3-diazinane-5-carboxamide and their activity against glioblastoma LN-229 cell line” (Bioorg Med Chem, 2016).

Columns and labels:
[1] = Cytotoxicity against human LN229 cells assessed as concentration required for induction of cell death after 24 hrs by crystal violet staining based light microscopic analysis; format: functional, LN-229
[2] = Solubility of the compound in chloroform; format: physicochemical
[3] = Solubility of the compound in trifluoroacetic acid; format: physicochemical
[4] = Solubility of the compound in CHCl3/TFA; format: physicochemical
[5] = Solubility of the compound in DMSO; format: physicochemical
[6] = Solubility of the compound in ethanol; format: physicochemical
[7] = Solubility of the compound in isopropanol; format: physicochemical
[8] = Solubility of the compound in DMSO/TFA; format: physicochemical

Compound | Activity [1] | solubility [2] | solubility [3] | solubility [4] | solubility [5] | solubility [6] | solubility [7] | solubility [8]
O=C(NNC(=O)C1C(=O)NC(=O)N(c2ccccc2)C1=O)Nc1ccc(Cl)c(Cl)c1 (configuration not stated) | 100 µg/mL | Insoluble | Insoluble | Insoluble | Insoluble | Insoluble | Insoluble | Insoluble
O=C(NNC(=O)C1C(=O)NC(=O)N(c2ccccc2)C1=O)Nc1ccc(O)c([N+](=O)[O-])c1 (configuration not stated) | 100 µg/mL | Insoluble | Insoluble | Insoluble | Insoluble | Insoluble | Insoluble | Insoluble
CN1C(=O)NC(=O)C(C(=O)NNC(=O)Nc2ccc(Cl)cc2)C1=O (configuration not stated) | 100 µg/mL | Insoluble | Insoluble | Insoluble | Insoluble | Insoluble | Insoluble | Insoluble
O=C1NC(=O)C(C(=O)NNC(=O)Nc2ccc(O)c([N+](=O)[O-])c2)C(=O)N1 |  | Insoluble | Soluble | Soluble | Insoluble | Insoluble | Insoluble | Soluble
N#Cc1ccc(NC(=O)NNC(=O)C2C(=O)NC(=O)NC2=O)cc1 |  | Insoluble | Soluble | Soluble | Insoluble | Insoluble | Insoluble | Soluble
CN1C(=O)NC(=O)C(C(=O)NNC(=O)Nc2ccc(C#N)cc2)C1=O (configuration not stated) |  | Insoluble | Insoluble | Insoluble | Insoluble | Insoluble | Insoluble | Insoluble
CN1C(=O)NC(=O)C(C(=O)NNC(=O)Nc2ccc(O)c([N+](=O)[O-])c2)C1=O (configuration not stated) |  | Insoluble | Insoluble | Insoluble | Insoluble | Insoluble | Insoluble | Insoluble
CN1C(=O)NC(=O)C(C(=O)NNC(=O)Nc2ccccc2)C1=O (configuration not stated) |  | Insoluble | Insoluble | Insoluble | Insoluble | Insoluble | Insoluble | Insoluble
CN1C(=O)NC(=O)C(C(=O)NNC(=O)Nc2ccc(Cl)c(Cl)c2)C1=O (configuration not stated) |  | Insoluble | Insoluble | Insoluble | Insoluble | Insoluble | Insoluble | Insoluble
CN1C(=O)NC(=O)C(C(=O)NNC(=O)Nc2cccc(O)c2)C1=O (configuration not stated) |  | Insoluble | Insoluble | Insoluble | Insoluble | Insoluble | Insoluble | Insoluble
O=C1NC(=O)C(C(=O)NNC(=O)Nc2ccc(O)cc2)C(=O)N1 |  | Insoluble | Soluble | Soluble | Insoluble | Insoluble | Insoluble | Soluble
O=C(NNC(=O)C1C(=O)NC(=O)N(c2ccccc2)C1=O)Nc1ccc(O)cc1 (configuration not stated) |  | Insoluble | Insoluble | Insoluble | Insoluble | Insoluble | Insoluble | Insoluble
